#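 Cultured in 96-well plates, cells were exposed to test compound for 48 hours across five concentrations. GI50 = concentration required for 50% inhibition of growth. Definition used: TGI = concentration required for complete inhibition of growth.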
# Experiments:
# Assay in all cases: NCI-60 cell line screen, 48 h
# KM12 colon = system: KM12 colon
# UO-31 renal = system: UO-31 renal
# UACC-62 melanoma = system: UACC-62 melanoma
# DU-145 prostate = system: DU-145 prostate
# M14 melanoma = system: M14 melanoma
# OVCAR-4 ovarian = system: OVCAR-4 ovarian
# MALME-3M melanoma = system: MALME-3M melanoma
# MDA-N = system: MDA-N
# MDA-MB-435 = system: MDA-MB-435
# A549 NSCLC = system: A549 NSCLC
# SF-268 CNS = system: SF-268 CNS
Compound,TGI (KM12 colon) [µM],TGI (UO-31 renal) [µM],TGI (UACC-62 melanoma) [µM],TGI (DU-145 prostate) [µM],TGI (M14 melanoma) [µM],TGI (OVCAR-4 ovarian) [µM],TGI (MALME-3M melanoma) [µM],TGI (MDA-N) [µM],TGI (MDA-MB-435) [µM],TGI (A549 NSCLC) [µM],TGI (SF-268 CNS) [µM],GI50 (KM12 colon) [µM],GI50 (DU-145 prostate) [µM],GI50 (M14 melanoma) [µM],GI50 (OVCAR-4 ovarian) [µM],GI50 (MDA-N) [µM],GI50 (MDA-MB-435) [µM],GI50 (SF-268 CNS) [µM],GI50 (UACC-62 melanoma) [µM]
c1ccc(-c2nn(-c3ccccc3)[n+](-c3ccccc3)n2)cc1,> 81.7,> 100,40.9,> 100,47.5,> 100,2.93,31.5,23.5,> 100,> 38.8,,,,,,,,
CCOC(=O)CCC(NC(=O)c1ccc(N2CCN(c3c(C)nc(N)nc3N)CC2)cc1)C(=O)OCC (configuration not stated),> 100,> 100,> 100,> 100,> 46,> 100,> 100,> 54.7,> 48.1,> 100,> 100,,,,,,,,
COc1ccccc1N1CCN(Cn2c(=O)oc3cccnc32)CC1,,> 100,,> 100,> 100,> 100,> 100,> 100,> 100,> 100,> 100,,,,,,,,
O=C(N/N=C\c1ccc2ccccc2c1)Nc1ccc([N+](=O)[O-])cc1,> 100,> 59.3,> 74.8,> 65,> 95.8,> 70.2,> 70.9,> 70.6,> 100,> 85,> 89.9,,,,,,,,
N#CC1(C#N)NC(c2ccsc2)C(C#N)(C#N)NC1c1ccsc1 (configuration not stated),> 100,> 100,> 100,> 100,> 100,> 100,> 100,> 100,> 100,> 100,> 100,,,,,,,,
COC(=O)/N=[N+](\[O-])C(c1ccc(OC)cc1)C1CCCCC1 (configuration not stated),16.7,21.5,25,10.8,13.1,> 100,11.8,12,26.4,34.9,37.9,,,,,,,,
Cn1c2ccccc2c(=NNc2ccc(C(=O)O)cc2)c2ccccc21,50.3,46.9,44.1,58,31.8,49,40.8,33.7,34.3,38.7,48,,,,,,,,
OC1COC(n2c3ccc(Br)cc3c3ccc4c5ccccc5[nH]c4c32)C(O)C1O (configuration not stated),3.53,14.2,1.53,12.6,15.3,> 46.2,15.3,15.2,16.1,23.7,19.9,,,,,,,,
CCN(CC)C(=S)SS(=O)(=O)c1ccc([N+](=O)[O-])cc1,24.5,47,> 100,82.4,28.6,> 100,37.9,> 100,54.7,> 100,> 100,11.1,27.2,14.9,45.5,30.2,23.2,> 100,
Nc1nc(Cl)cc(Nc2cc(Cl)cc(Cl)c2)n1,37.7,36.5,33.5,47.3,35.4,46.6,37.8,48.8,37.1,58.9,40.4,,,,,,,,
Cc1cccc(NC(=S)N=Nc2c(O)[nH]c3ccccc23)c1,> 100,> 100,> 100,70.6,> 100,> 100,> 100,> 100,> 100,> 100,58.7,,,,,,,,
CSc1ccc(/C=C2\N=C(c3ccccc3)N(c3nc4ccc(Sc5ccccc5)cc4[nH]3)C2=O)cc1,52,68.5,39.1,70.7,32.5,> 100,> 58.5,18,16.1,> 97.2,> 77.8,,,,,,,,
CN(C)c1ccc(/C=C/C=C(/C#N)c2ccccc2)cc1,34.1,> 100,> 100,> 100,> 85.1,> 65.8,> 100,5.28,6.19,> 100,> 100,,,,,,,,
COC(=O)c1cc(C#Cc2cc(OC)ccc2OC)ccc1OC,> 100,> 100,> 100,> 100,> 100,> 100,> 100,> 100,> 100,> 100,> 100,,43.6,,,,,,29.3
Brc1ccc2[nH]cc(-c3nc(-c4c[nH]c5ccccc45)cs3)c2c1,5.1,13.9,6.95,10.4,3.73,23.1,9.39,9.35,13.3,15.8,11.4,,,,,,,,
O=[N+]([O-])c1ccc2nc(/C=C(\O)c3ccc(F)cc3)c(/C=C(\O)c3ccc(F)cc3)nc2c1,> 100,> 100,> 100,> 100,> 100,> 100,> 100,> 100,> 100,> 100,> 100,,,,,,,,
Cc1cccc(NC(=S)Nc2ccccc2Cl)n1,79.4,> 100,> 100,> 100,> 100,57.8,88.3,> 100,> 100,> 100,62,,,,,,,,
Cc1ccc(N=C2C(=O)C3=C(OC(C)(C)CC3)c3ccccc32)cc1,4.01,1.96,2.88,2.59,1.59,2.18,1.7,0.335,0.346,3.69,6.37,,,,,,,,
O=c1[nH]nc(Cc2ccccc2)n1Nc1ccccc1,> 100,> 100,> 100,> 100,,> 100,> 100,> 100,> 100,> 100,> 100,,,,,,,,
CC[C@H]1OC([C@H](O)C/C=C\C#C[Si](C)(C)C)C/C=C\C[C@H]1O[Si](C)(C)C(C)(C)C (some centres not stated),> 100,> 100,> 100,> 100,> 100,> 100,> 100,> 100,> 100,> 100,> 100,,,,,,,,

Compound,TGI (KM12 colon) [µM],TGI (UO-31 renal) [µM],TGI (UACC-62 melanoma) [µM],TGI (DU-145 prostate) [µM],TGI (M14 melanoma) [µM],TGI (OVCAR-4 ovarian) [µM],TGI (MALME-3M melanoma) [µM],TGI (MDA-N) [µM],TGI (MDA-MB-435) [µM],TGI (A549 NSCLC) [µM],TGI (SF-268 CNS) [µM],GI50 (KM12 colon) [µM],GI50 (DU-145 prostate) [µM],GI50 (M14 melanoma) [µM],GI50 (OVCAR-4 ovarian) [µM],GI50 (MDA-N) [µM],GI50 (MDA-MB-435) [µM],GI50 (SF-268 CNS) [µM],GI50 (UACC-62 melanoma) [µM]
Cc1ccc2c(n1)C(=O)c1ccccc1C2=O,> 100,> 92.7,43.6,36.4,> 75.5,55.4,23.2,> 59.9,32.6,69,> 100,,,,,,,,
COCCOCCOC1=C(Cl)C(=O)c2c(O)ccc(O)c2C1=O,31.9,4.83,7.85,22.4,3.29,4.36,3.34,9.63,3.83,25.5,7.26,,,,,,,,
COc1cc(COC(=O)N2CCC2C(=O)O)c([N+](=O)[O-])cc1OC (configuration not stated),> 100,> 100,> 100,> 100,> 100,,> 100,> 100,> 100,> 100,> 100,,,,,,,,
CCC(CCCC[C@@H]1CC[C@H]2CC(=O)C[C@@H]12)OC (some centres not stated),> 100,,> 100,> 100,> 100,> 100,> 100,> 100,> 100,> 100,> 100,,,,,,,,
CN(CCc1ccc(N)cc1)[C@H]1CCCC[C@H]1N1CCCC1,> 100,> 100,> 100,> 100,> 100,> 100,> 100,> 100,> 100,> 100,> 100,,,,,,,,
COC(=O)/C=c1/c2ccccc2n2nc3ccccc3c12,> 100,> 100,> 100,> 100,> 100,> 100,> 100,> 100,> 100,> 100,> 100,,,,,,,,
COc1cccc(NC(=O)CC(=O)N2N=C(C)C(N=Nc3ccc(S(=O)(=O)c4ccc(N=NC5C(=O)N(C(=O)CC(=O)Nc6cccc(OC)c6)N=C5C)cc4)cc3)C2=O)c1 (configuration not stated),> 100,> 100,> 100,> 100,> 100,> 100,> 100,> 100,> 100,> 100,> 100,,,,,,,,
CC(C)C1OC(=O)/C=C/C=C/C=C/C=C/C=C/CC(O)CC(O)CC(O)CC(O)CC(O)CC(O)CC(O)CC(O)/C=C/C1C (configuration not stated),> 100,> 100,,> 100,> 100,> 100,> 100,> 100,> 100,> 100,> 100,,,,,,,,
COc1ccc(-c2cc(-c3cc(OC)c(OC)c(OC)c3)cc(-c3cc4ccccc4oc3=O)n2)cc1,> 100,24.7,33.6,56.1,> 100,21.4,23.9,68,> 100,60,16.7,,,,,,,,
Cc1cccc2c1NC(=S)[C@@H]1CCCN1C2=O,> 100,> 100,> 100,> 100,> 100,> 100,> 100,> 100,> 100,> 100,> 100,,,,,,,,
CC(=O)Nc1ccc2c3c(cc(O)c2c1)N(C(=O)CCCCC(=O)Nc1ccc2c4c(cc(O)c2c1)N(C(=O)OC(C)(C)C)CC4CCl)CC3CCl (configuration not stated),> 100,> 63.9,3.16,4.39,> 34.1,> 24.3,3.52,3.85,2.95,> 55.6,7.21,,,,,,,,
COc1ccc(N=C(Nc2ccc(OC)cc2)C(=Nc2ccc(OC)cc2)Nc2ccc(OC)cc2)cc1,> 100,> 100,> 100,> 100,> 100,> 100,> 100,> 100,> 100,> 100,> 100,,,,,,,,
CCCCOC(=O)C(O)Cc1ccoc1 (configuration not stated),> 100,> 100,> 100,> 100,> 100,> 100,> 100,> 100,> 100,> 100,> 100,,,,,,,,
Clc1ccc(C2NN=C3c4ccccc4OCC32)cc1 (configuration not stated),> 37.9,41.4,> 47.2,> 95.4,> 45.1,> 73.1,23.1,2.56,> 21.3,> 100,> 81,,,,,,,,
Cc1c(NC(=S)Nc2ccc(Cl)cc2)c(=O)n(-c2ccccc2)n1C,> 100,> 100,> 100,> 100,> 100,,> 100,> 100,> 100,> 100,> 100,,,,,,,,
O=[N+]([O-])c1cccnc1NCC1(CO)CC(Cc2ccccc2)C1 (configuration not stated),> 100,> 100,> 100,> 100,,> 100,> 100,> 100,> 100,> 100,> 100,,,,,,,,
CC1(C)N=C(N)N=C(N)N1c1cccc(OCCOc2ccc([N+](=O)[O-])cc2)c1,> 100,,,> 100,> 100,> 100,> 100,> 100,> 100,> 100,> 100,,,,,,,,
CC1(C)Oc2ccc3c(=O)cc(-c4ccc(F)cc4)oc3c2C1C(=O)O (configuration not stated),,,> 100,> 100,> 100,,> 100,> 100,> 100,> 100,> 100,,,,,,,,
O=c1oc2ccccc2n1CCN1CCCCC1,> 100,,> 100,> 100,> 100,,> 100,> 100,> 100,,> 100,,,,,,,,
C[Si](C)(OCCS(=O)(=O)O)C1S(=O)(=O)OCCOS1(=O)=O,> 100,> 100,> 100,> 100,> 100,> 100,> 100,> 100,> 100,,> 100,,,,,,,,

# — PubChem BioAssay (NCI)
